Results reported in patent publication US7217548B2, “N-acetylglucosaminlytransferase and polynucleotide encoding the same” (National Institute of Advanced Industrial Science and …, priority 2000, dated 2007).
“Also recorded” adds a separate entry of the source. Read-outs that look alike come from different tables or passages of the source. Values belong to the molecule of their own block, whether it stands above or below them. Peptide text beside a SMILES is read from it. * marks the point of attachment. αMan = OC[C@H]1O[C@H](*)[C@@H](O)[C@@H](O)[C@@H]1O

Experiments:
[1] = target: T1, His-Xpress-sOMGnT(S) (Homo sapiens, UniProt Q8WZA1, M623V); experiment: Substrate specificity and kinetic parameters of solubilized human OMGnT enzyme (S); format: biochemical; settings: for OMGnT relative activity (%) His-Xpress-sOMGnT(S): as sugar receptor, activity with Man-peptide regarded as 100%
T1 construct: Ig kappa chain secretory signal (N); made in house; host or cells: HEK293T (transient, secreted into serum-free medium)
T1 sequence (Q8WZA1 247-660 M623V): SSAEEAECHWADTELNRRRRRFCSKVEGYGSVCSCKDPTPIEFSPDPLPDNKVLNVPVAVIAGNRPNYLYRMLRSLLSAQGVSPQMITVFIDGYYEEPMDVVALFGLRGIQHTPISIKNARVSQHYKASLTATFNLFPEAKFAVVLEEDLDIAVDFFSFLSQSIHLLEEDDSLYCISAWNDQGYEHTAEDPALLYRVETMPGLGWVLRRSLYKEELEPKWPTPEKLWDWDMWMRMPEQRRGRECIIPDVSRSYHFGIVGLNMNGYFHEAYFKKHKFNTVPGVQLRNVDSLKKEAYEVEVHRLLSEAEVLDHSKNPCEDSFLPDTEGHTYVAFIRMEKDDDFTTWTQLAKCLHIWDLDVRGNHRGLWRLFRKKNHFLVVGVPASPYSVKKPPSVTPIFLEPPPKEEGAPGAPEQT
Experimental: (§1) […] […] The reaction mixture was then filtered with a filter Ultrafree-MC (Millipore) having a pore size of 0.22 μm to remove solids, and analyzed by Wakopak 5C18-200 column (4.6×250 mm, Wako Pure Chemical Industries, Ltd.). The separation was carried out using concentration gradient with Solution A and Solution B at a flow rate of 1.0 ml/min. […] Peptide detection was carried out at 214 nm, and the radioactivity of each fraction was assayed using a liquid scintillation counter.
(§2) The activity of GnT-1 was assayed with a method by Yoshida et al. [Yoshida, S., Suzuki, M., Yamano, S., Takeuchi, M., Ikenaga, H., Kioka, N., Sakai, H., and Komano, T., Glycobiology, (1999), 9, 53–58] as described below. A 20 μl reaction solution was prepared by adding an enzyme source thereto so as to have a final concentration of 100 mM MES (pH 6.0), 20 mM MnCl2, 5 μM Manα1–6(Manα1–3)Manα1–6(Manα1–3)Manβ1–4GlcNAcβ1–4GlcNAc-PA(M5GN2-PA; Takara Shuzo, PA-Sugar Chain 017), 1 mM UDP-GlcNAc, 100 mM GlcNAc, 5 mM AMP, 1% Triton X-100, and 0.2% BSA. The reaction solution was incubated at 37° C. for 1 hour, and the reaction was terminated in boiling water. Thereafter, the reaction solution was analyzed by a reverse phase HPLC (Cosmosil 5C18-AR column) available from Nacalai Tesque.
(§3) When Manα1–6(Manα1–3)Manβ1–4GlcNAcβ1–4GlcNAc-PA (M3GN2-PA; Takara Shuzo, PA-Sugar Chain 016) was used as a sugar receptor, the same method was employed for analysis.

[2] = target: T2, His-Xpress-sOMGnT(L) (Homo sapiens, UniProt Q8WZA1, M623V); experiment: Substrate specificity and kinetic parameters of solubilized human OMGnT enzyme (L); format: biochemical; settings: for OMGnT relative activity (%) His-Xpress-sOMGnT(L): as sugar receptor, activity with Man-peptide regarded as 100%
T2 construct: 595 amino acids from 66: Ser thereof (66: Ser to 660: Thr), respectively; Ig kappa chain secretory signal (N); made in house; host or cells: HEK293T (transient, secreted into serum-free medium)
T2 sequence (Q8WZA1 66-660 M623V): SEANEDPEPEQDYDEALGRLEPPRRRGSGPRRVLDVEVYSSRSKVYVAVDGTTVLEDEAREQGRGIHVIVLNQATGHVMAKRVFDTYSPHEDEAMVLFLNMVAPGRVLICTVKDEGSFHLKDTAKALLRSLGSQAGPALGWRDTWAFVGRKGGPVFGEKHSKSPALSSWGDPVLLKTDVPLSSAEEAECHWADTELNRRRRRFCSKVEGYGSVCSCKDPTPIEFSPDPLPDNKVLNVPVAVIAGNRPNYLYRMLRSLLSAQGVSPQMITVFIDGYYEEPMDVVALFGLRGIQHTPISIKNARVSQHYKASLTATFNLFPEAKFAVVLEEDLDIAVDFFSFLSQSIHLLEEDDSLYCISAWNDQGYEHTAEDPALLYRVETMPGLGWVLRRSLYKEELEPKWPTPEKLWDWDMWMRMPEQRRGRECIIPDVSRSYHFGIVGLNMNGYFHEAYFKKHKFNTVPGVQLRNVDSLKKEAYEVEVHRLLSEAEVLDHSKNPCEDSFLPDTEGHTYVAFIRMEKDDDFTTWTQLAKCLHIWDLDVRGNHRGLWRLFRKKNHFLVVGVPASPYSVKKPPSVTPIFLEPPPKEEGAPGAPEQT
Experimental: as §1, §2, §3

[3] = test system: OMGnT; experiment: OMGnT activity in serum-free medium of HEK293T cells expressing solubilized enzymes; format: biochemical, human; settings: serum-free medium of HEK293T transfectants
Experimental: (§4) The enzyme solution was added to 140 mM MES [2-(N-morpholino) ethanesulfonic acid] buffer (pH 7.0) containing 0.4 mM Man-peptide, 0.2 mM UDP-[^3H]GlcNAc (up to 228,000 dpm/nmol), 10 mM MnCl2, 5 mM AMP, 200 mM GlcNAc, 2%(w/v) Triton X-100, 10% glycerol, 2 μg/ml antipain, 2 μg/ml chymostatin, 3 μg/ml pepstatin A, 2 μg/ml leupeptin, 1 mM benzamidine-HCl, and 1 mM PMSF (phenylmethylsulfonyl fluoride) to prepare 50 μl of reaction solution. After the reaction at 37° C. for 3 hours, the reaction was terminated by 3 minutes of boiling. The reaction mixture was then filtered with a filter Ultrafree-MC (Millipore) having a pore size of 0.22 μm to remove solids, and analyzed by Wakopak 5C18-200 column (4.6×250 mm, Wako Pure Chemical Industries, Ltd.). The separation was carried out using concentration gradient with Solution A and Solution B at a flow rate of 1.0 ml/min. […] Peptide detection was carried out at 214 nm, and the radioactivity of each fraction was assayed using a liquid scintillation counter.
Each secretory expression plasmid was transiently expressed in a HEK293T cell derived from human embryonic kidney. Usually, HEK293T cells were cultured in D-MEM (Gibco, #11995-065) containing 10% Fetal Calf Serum (Hyclone), 10 mM MEM Non-Essential Amino Acids solution (Gibco), 2 mM Glutamine (Gibco), and 100 units/ml Penicillin/100 μg/ml Streptomycin (Gibco). […]

[4] = target: T3, GnT-I (Homo sapiens, UniProt P26572); experiment: GnT-I activity assay of solubilized enzymes; format: biochemical; settings: method of Reference Example 2
T3 construct: Ig kappa chain secretory signal (N); made in house; host or cells: HEK293T (transient, secreted into serum-free medium)
T3 sequence (P26572 39-445 limits assumed): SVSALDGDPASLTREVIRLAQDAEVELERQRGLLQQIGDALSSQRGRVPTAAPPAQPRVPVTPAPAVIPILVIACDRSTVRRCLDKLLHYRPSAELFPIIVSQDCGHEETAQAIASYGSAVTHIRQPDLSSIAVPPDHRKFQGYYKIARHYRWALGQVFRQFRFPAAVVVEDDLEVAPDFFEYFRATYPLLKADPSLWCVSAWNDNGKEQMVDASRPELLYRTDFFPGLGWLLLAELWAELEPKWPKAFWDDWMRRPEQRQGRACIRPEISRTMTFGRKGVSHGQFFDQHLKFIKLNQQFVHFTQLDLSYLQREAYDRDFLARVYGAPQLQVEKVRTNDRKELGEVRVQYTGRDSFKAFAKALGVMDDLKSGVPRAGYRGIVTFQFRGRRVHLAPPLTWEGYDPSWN
Experimental: as §2, §3

[5] = target: T4, OMGnT (Homo sapiens, UniProt Q8WZA1, M623V); experiment: OMGnT activity of microsomal fractions of HEK293T cells transfected with full-length human OMGnT plasmid; format: biochemical
T4 construct: a cDNA of approximately 2.0 kb encoding the full length of human OMGnT is inserted; expressed in transfected cells; host or cells: HEK293T
T4 sequence (Q8WZA1 whole entry M623V): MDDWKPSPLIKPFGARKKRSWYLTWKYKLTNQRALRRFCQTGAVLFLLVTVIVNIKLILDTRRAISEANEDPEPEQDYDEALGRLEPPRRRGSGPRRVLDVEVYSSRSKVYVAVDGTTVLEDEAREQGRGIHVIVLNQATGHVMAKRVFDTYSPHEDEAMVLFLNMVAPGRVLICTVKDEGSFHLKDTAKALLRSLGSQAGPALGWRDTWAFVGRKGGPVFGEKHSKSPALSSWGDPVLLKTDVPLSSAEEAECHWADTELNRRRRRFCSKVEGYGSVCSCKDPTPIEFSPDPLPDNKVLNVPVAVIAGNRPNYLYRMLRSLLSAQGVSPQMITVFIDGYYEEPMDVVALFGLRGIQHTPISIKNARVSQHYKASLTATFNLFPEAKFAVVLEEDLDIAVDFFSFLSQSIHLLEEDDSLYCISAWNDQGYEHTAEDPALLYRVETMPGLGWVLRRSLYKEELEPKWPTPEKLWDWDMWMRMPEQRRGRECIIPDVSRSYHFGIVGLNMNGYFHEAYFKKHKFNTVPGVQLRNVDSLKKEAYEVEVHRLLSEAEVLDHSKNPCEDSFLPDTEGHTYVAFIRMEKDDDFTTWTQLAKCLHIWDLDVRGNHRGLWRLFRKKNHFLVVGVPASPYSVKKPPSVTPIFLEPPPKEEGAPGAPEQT
Experimental: as §4
The mixture was centrifuged for 10 minutes at 900×g, and then the obtained supernatant was centrifuged for 1 hour at 100,000×g, thereby obtaining a microsomal fraction as a precipitate. In the case of preparing solubilized enzyme, the precipitate was suspended in 140 mM MES buffer (pH 7.0) (referred to as solubilization buffer) containing 5 mM AMP, 200 mM GlcNAc, 2%(w/v) Triton X-100, 10% glycerol, 2 μg/ml antipain, 2 μg/ml chymostatin, 3 μg/ml pepstatin A, 2 μg/ml leupeptin, 1 mM benzamidine-HCl, and 1 mM PMSF(phenylmethylsulfonyl fluoride) and sonicated. Thereafter, the resultant was centrifuged for 1 hour at 100,000×g and the obtained supernatant was used.
The expression plasmid was transiently expressed in an HEK293T cell in the same manner as described in Example 3. 15 μg of plasmid was transfected to 50–70% confluent cells in a 10 cm petri dish. After overnight cultivation, the medium was changed. After a further 48-hour cultivation, cells were collected.
A microsomal fraction was prepared from cells by the method described in Example 2, and OMGnT activity of a soluble fraction and an insoluble fraction were assayed by the method described in Example 1.

[6] = target: T5, OMGnT derived from a newborn rat brain (Rattus norvegicus, UniProt Q5XIN7); experiment: Divalent cation requirement for OMGnT activity; format: biochemical; settings: for effect on OMGnT activity relative to Mn2+: 10 mM for each divalent cation; for Relative activity of OMGnT (%): each additive 10 mM, activity with 10 mM MnCl2 taken as 100%
T5 construct: from tissue; host or cells: newborn rat brain
T5 sequence (Q5XIN7 whole entry): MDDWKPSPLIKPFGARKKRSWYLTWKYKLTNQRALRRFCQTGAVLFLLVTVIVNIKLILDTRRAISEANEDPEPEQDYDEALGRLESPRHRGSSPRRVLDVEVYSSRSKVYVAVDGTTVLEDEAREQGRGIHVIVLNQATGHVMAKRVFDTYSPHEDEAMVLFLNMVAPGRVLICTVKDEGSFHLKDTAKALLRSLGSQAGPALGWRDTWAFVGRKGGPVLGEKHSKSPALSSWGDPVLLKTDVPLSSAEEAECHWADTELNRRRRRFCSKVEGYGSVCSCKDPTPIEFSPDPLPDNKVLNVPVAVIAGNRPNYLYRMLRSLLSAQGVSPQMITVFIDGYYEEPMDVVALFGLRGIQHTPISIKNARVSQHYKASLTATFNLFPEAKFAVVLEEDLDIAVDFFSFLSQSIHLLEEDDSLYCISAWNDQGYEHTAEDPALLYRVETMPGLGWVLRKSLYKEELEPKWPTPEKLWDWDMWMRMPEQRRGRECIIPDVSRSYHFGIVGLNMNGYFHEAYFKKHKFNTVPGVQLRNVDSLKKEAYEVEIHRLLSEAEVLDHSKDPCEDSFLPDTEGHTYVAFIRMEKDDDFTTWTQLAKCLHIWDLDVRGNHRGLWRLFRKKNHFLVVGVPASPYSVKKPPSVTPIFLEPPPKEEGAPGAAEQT

[7] = test system: OMGnT; experiment: Substrate specificity of OMGnT expressed in animal cells (summary of properties); format: biochemical, human; settings: reactivity toward mannosylnanopeptide regarded as 100%
Excerpt: The biochemical properties of the OMGnT: an enzyme protein massively expressed in animal cells as described above are as follows.

OMGnT relative activity (%) His-Xpress-sOMGnT(S) [1]: 0%
OMGnT relative activity (%) His-Xpress-sOMGnT(L) [2]: 0%
Molecule: Manα1–6(Manα1–3)Manα1–6(Manα1–3)Manβ1–4GlcNAcβ1–4GlcNAc-PA [M5GN2-PA]

GnT-I activity (in words) [4]: did not exhibit activity at all
Molecule: His-Xpress-sOMGnT(L): solubilized human OMGnT, 595 amino acids 66:Ser to 660:Thr, secreted from HEK293T; plasmid named in Table 3
OMGnT activity [3]: 15 pmol/hr/mg protein
OMGnT activity (in words) [3]: significantly high OMGnT activity

effect on OMGnT activity relative to Mn2+ [6]: approximately 40%
Relative activity of OMGnT (%) [6]: 39%
Molecule: [Cl-].[Cl-].[Mg+2] [MgCl2]

effect on OMGnT activity (in words) [6]: weak effect
effect on OMGnT activity relative to Mn2+ [6]: approximately 15%
Relative activity of OMGnT (%) [6]: 15%
Molecule: [Ca+2].[Cl-].[Cl-] [CaCl2]

More lines, now with the values behind:

Molecule: OMGnT/pcDNA3.1zeo: expression plasmid for full-length human OMGnT (SEQ ID NO: 2), expressed in HEK293T; microsomal fractions assayed
OMGnT activity, times higher than control (no plasmid), insoluble fraction ([5]; insoluble fraction): ~140 times
OMGnT activity, Insoluble fraction ([5]; insoluble fraction of microsomal fraction, HEK293T): 243.9 pmol/hr/mg protein
OMGnT activity, times higher than control (no plasmid), soluble fraction ([5]; soluble fraction): about 120 times
OMGnT activity, Soluble fraction ([5]; soluble fraction of microsomal fraction, HEK293T): 182.7 pmol/hr/mg protein
OMGnT activity, Total ([5]; soluble plus insoluble fraction): 426.6 pmol/hr/mg protein

Molecule: Manα1–6(Manα1–3)Manβ1–4GlcNAcβ1–4GlcNAc-PA [M3GN2-PA]
OMGnT relative activity (%) His-Xpress-sOMGnT(S) [1]: 0%
OMGnT relative activity (%) His-Xpress-sOMGnT(L) [2]: 0%

Molecule: [Cl][Mn][Cl] [MnCl2]
concentration range at which the effect on OMGnT activity is the greatest [6]: 1 to 10 mM
Relative activity of OMGnT (%) [6]: 100%
effect on OMGnT activity (in words) ([6]; listed as Mn^2+): greatest effect; also recorded: maximum effect

Molecule: CC(=O)N[C@H]1[C@@H](OP(=O)(O)OP(=O)(O)OC[C@H]2O[C@@H](n3ccc(=O)[nH]c3=O)[C@H](O)[C@@H]2O)O[C@H](CO)[C@@H](O)[C@@H]1O [UDP-GlcNAc]
Km ([1]; 125 mM MOPS pH7.3, 0.4 mM Man-peptide, 7.5 mM MnCl2, 37° C., 2 hours, read-out: apparent Km value of His-Xpress-sOMGnT(S) toward UDP-GlcNAc): 570 µM
Km ([2]; 125 mM MOPS pH7.3, 0.4 mM Man-peptide, 7.5 mM MnCl2, 37° C., 2 hours, read-out: apparent Km value of His-Xpress-sOMGnT(L) toward UDP-GlcNAc): 730 µM

Molecule: O=[N+]([O-])c1ccc(O[C@H]2O[C@H](CO)[C@@H](O)[C@H](O)[C@@H]2O)cc1 [p-nitrophenyl Man, p-nitrophenyl mannose]
OMGnT relative activity (%) His-Xpress-sOMGnT(S) [1]: 0%
OMGnT relative activity (%) His-Xpress-sOMGnT(L) [2]: 0%
reactivity of the enzyme toward sugar receptor [7]: 0%

Molecule: CC(=O)N[C@@H](C)C(=O)N[C@@H](C)C(=O)N1CCC[C@H]1C(=O)N[C@H](C(=O)N1CCC[C@H]1C(=O)N[C@H](C(=O)N[C@@H](C)C(=O)N[C@@H](C)C(=O)N1CCC[C@H]1C(N)=O)C(C)C)[C@@H](C)O[C@H]1O[C@H](CO)[C@@H](O)[C@H](O)[C@@H]1O [Man-peptide, Ac-Ala-Ala-Pro-Thr(Man)-Pro-Val-Ala-Ala-Pro-NH2] (Ac-AAPT(αMan)PVAAP-NH2)
OMGnT relative activity (%) His-Xpress-sOMGnT(S) [1]: 100%
OMGnT relative activity (%) His-Xpress-sOMGnT(L) [2]: 100%
